Results reported in ChEMBL document CHEMBL1122523, “2-[[[2-(2,6-Dimethoxyphenoxy)ethyl]amino]-methyl] -1,4-benzoxathian: a new antagonist with high potency and selectivity toward alpha 1-adrenoreceptors” (J Med Chem, 1984).

Assays:
[1] = molecular target: T1, Adrenergic receptor alpha-2 (Rattus norvegicus, UniProt P22086+P19328+P22909); experiment: Alpha-2 adrenergic receptor antagonist activity against agonist (clonidine) in isolated rat vas deferens; assay type: functional, tissue-based
T1 sequence (P22086 whole entry): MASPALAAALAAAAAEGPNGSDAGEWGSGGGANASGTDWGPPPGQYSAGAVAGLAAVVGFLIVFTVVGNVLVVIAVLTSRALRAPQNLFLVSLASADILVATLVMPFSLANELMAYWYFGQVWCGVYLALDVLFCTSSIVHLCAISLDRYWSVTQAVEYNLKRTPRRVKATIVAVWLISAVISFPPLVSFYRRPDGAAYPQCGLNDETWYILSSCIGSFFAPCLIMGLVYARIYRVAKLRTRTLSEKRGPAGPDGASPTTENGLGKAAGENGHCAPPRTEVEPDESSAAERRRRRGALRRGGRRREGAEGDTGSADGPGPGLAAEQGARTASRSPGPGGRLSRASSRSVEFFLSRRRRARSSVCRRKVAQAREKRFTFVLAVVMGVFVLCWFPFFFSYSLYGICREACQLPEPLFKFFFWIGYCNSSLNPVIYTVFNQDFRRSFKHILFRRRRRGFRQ
T1 sequence (P19328 whole entry): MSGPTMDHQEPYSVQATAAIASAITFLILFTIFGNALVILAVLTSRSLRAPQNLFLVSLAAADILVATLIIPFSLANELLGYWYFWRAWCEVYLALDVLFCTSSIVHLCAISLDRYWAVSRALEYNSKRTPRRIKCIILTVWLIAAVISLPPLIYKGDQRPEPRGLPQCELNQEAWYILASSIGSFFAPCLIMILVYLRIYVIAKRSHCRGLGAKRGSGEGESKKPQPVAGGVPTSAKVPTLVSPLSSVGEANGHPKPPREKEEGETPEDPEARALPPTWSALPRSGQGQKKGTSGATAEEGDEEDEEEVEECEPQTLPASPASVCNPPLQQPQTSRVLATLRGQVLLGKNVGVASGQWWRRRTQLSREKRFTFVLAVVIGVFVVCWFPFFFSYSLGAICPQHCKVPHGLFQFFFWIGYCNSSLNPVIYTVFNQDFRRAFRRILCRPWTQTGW
T1 sequence (P22909 whole entry): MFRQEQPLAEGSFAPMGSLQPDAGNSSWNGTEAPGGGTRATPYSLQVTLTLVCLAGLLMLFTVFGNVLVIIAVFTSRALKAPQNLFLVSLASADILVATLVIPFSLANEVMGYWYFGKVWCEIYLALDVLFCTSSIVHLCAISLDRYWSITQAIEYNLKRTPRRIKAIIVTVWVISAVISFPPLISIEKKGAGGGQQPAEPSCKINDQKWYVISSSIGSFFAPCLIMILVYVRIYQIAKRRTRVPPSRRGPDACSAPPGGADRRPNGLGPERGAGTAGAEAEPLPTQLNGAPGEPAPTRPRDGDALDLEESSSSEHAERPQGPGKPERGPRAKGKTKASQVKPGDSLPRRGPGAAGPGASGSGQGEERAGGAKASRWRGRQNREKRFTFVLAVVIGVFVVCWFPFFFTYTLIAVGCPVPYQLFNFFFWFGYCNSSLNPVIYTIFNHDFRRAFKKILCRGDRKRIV

[2] = molecular target: T2, Adrenergic receptor alpha-1 (Rattus norvegicus, UniProt P15823+P23944+P43140); experiment: Alpha-1 adrenergic receptor antagonist activity against agonist (norepinephrine) in isolated rat vas deferens; assay type: functional, tissue-based
T2 sequence (P15823 whole entry): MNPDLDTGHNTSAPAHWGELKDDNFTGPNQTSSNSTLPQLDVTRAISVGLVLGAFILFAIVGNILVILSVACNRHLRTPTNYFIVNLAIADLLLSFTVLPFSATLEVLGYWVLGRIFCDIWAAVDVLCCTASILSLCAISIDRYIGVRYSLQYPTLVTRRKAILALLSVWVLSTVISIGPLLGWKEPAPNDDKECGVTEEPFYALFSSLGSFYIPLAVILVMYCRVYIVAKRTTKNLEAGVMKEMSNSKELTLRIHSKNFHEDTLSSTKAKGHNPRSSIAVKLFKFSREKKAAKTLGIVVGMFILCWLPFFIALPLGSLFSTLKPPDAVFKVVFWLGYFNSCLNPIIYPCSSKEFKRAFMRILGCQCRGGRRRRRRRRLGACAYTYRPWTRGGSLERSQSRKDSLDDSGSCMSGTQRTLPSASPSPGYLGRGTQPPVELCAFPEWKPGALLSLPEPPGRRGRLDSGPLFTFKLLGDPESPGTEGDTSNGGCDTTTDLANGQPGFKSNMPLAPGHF
T2 sequence (P23944 whole entry): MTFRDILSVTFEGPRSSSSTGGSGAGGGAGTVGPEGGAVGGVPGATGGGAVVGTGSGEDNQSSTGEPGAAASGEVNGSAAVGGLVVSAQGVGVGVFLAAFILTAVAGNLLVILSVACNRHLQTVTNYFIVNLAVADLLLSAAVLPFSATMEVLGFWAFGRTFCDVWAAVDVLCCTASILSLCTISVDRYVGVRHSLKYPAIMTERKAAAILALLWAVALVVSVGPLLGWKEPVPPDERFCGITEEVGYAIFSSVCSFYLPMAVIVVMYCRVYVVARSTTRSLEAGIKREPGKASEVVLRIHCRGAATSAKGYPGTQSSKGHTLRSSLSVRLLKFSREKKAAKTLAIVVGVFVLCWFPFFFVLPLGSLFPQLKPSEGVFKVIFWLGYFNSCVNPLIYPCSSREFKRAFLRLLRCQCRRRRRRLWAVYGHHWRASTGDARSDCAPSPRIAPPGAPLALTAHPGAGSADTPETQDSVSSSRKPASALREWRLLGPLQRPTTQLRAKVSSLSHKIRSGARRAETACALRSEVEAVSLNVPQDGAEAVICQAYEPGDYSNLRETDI
T2 sequence (P43140 whole entry): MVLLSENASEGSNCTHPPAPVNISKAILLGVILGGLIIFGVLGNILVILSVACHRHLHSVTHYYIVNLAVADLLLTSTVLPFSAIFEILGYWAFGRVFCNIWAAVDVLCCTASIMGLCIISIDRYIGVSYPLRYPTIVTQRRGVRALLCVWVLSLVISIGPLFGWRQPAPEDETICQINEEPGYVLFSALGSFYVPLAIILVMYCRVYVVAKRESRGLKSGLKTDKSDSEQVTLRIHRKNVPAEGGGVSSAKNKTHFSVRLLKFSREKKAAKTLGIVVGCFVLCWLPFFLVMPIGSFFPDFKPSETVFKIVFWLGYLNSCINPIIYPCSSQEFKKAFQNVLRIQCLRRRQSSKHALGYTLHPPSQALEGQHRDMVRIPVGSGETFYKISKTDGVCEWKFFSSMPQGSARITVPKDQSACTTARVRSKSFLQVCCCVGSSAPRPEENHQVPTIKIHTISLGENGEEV

Row | SMILES | pA2 [1] | pA2 [2]
1 | COc1cccc(OC)c1OCCNCC1COc2ccccc2O1.Cl (centres undefined) [2- (2,6-DIMETHOXYPHENOXYETHYL)AMINOMETHYL-1,4-BENZODIOXANE HYDROCHLORIDE (WB 4101)] | 6.29 | 8.83
2 | COc1cccc(OC)c1OCCNCC1CSc2ccccc2O1.Cl (centres undefined) [BENOXATHIAN HYDROCHLORIDE] | 6.26 | 9.26
